# “Also recorded” adds a separate entry of the source. No end group written: not given here. fluorescein = fluorescein label conjugated to the peptide
# B1: phage displaying the FPSAHFL (SEQ ID NO:2) polypeptide (peptide, not shown: large carriers)
# peptide: FPSAHFL
# modifications: also: displayed on M13 phage coat protein, fusion end not given here
# notes: 7-mer selected from the Ph.D.-7 phage display library
# Key:
# CLL B cells = assay: Immunofluorescence staining of CLL B cell cytospins with FPSAHFL-displaying phage or fluorescein labelled polypeptide; assay type: binding, human; settings: phage plus fluorescent anti-phage antibodies or fluorescein-labelled polypeptide
# Excerpt: FIG. 2 contains fluorescence photomicrographs showing binding of the FPSAHFL (SEQ ID NO:2) polypeptide to CLL B cells. CLL B cells were placed on slides by cytospining and were stained with phages displaying the FPSAHFL (SEQ ID NO:2) polypeptide and FITC labeled anti-phage antibody (A and D) or were stained directly with fluorescein conjugated FPSAHFL (SEQ ID NO:2) polypeptide (B, C, and E).
# Binding of the FPSAHFL (SEQ ID NO:2) polypeptide to CLL B cells was investigated using immunofluorescence. Cytospins of 10^5 CLL B cells (see, Example 1) were prepared and incubated for 20 minutes at room temperature with phages displaying FPSAHFL (SEQ ID NO:2; 10^8 pfu). The cells were then washed twice with PBS and incubated for 15 minutes at room temperature with 10 μg of mouse anti-M13 phage antibodies (New England Biolabs). The cells were stained for 15 minutes at room temperature with 2 μg of fluorescein isothiocyanate (FITC) labelled secondary anti-mouse antibodies (Vector Laboratories Inc, Burlingame, Calif., USA). Non-displaying M13 phages were used as a control (New England Biolabs) and co-staining with 4′-6-Diamidino-2-phenylindole (DAPI) was used to identify cells. […] The purity of the polypeptide preparation (>99.9%) was assessed by mass spectrometry and high performance liquid chromatography using internal standards.
# vimentin [1] = target: T1, vimentin (Homo sapiens, UniProt P08670); assay: Immunoprecipitation of CLL B cell lysates with FPSAHFL phage and anti-phage antibodies, Western blotting, nano LC-MS/MS target identification; assay type: binding
# T1 construct: CLL B cell lysates were immunoprecipitated using phage and anti-phage antibodies; endogenous in cells; host or cells: primary CLL B cells (patient leukemic cells), total protein lysate
# Protocol: (§1) To identify FPSAHFL (SEQ ID NO:2) polypeptide targets, CLL B cell lysates were immunoprecipitated using phage and anti-phage antibodies. Total protein extracts were prepared from primary leukemic cells (see, Example 1) by lysing cells in cold lysis buffer (30 mM Tris-HCl, pH 7.4; 150 mM NaCl; 1% glycerol (v/v); 1% Triton X-100 (v/v); and 2 mM EDTA) in the presence of phosphatase inhibitors (100 mM NaF, 10 mM Na4P2O4, 1 mM Na2VO4), and protease inhibitors (10 μg/mL Leupeptin, 10 μg/mL Pepstatin A, and 1 mM phenylmethylsulfonyl fluoride (PMSF)). After centrifugation to remove cell debris, protein extracts were immunoprecipitated overnight at 4° C. on a rotator with phages displaying FPSAHFL (SEQ ID NO:2; 10^11 pfu[…]), anti-M13 phage antibodies and 40 μL goat anti-mouse IgG-sepharose 4B beads (Zymed, San Francisco, Calif., USA), according to the manufacturer's instructions. The beads were washed three times with lysis buffer, resuspended into a loading buffer and subjected to SDS-PAGE (5%-15%) under reducing conditions. The polypeptide was visualized by Coomassie blue or silver staining. To confirm that the immunoprecipitated polypeptide was indeed the target for FPSAHFL (SEQ ID NO:2) phage, Western blotting was performed using staining with FPSAHFL (SEQ ID NO:2) phage and anti-M13 phage antibodies. Non-displaying phage were used as a control. […]
# unmutated CLL B cells = assay: Subtraction biopanning with phage display polypeptide library on unmutated versus mutated CLL B cells; assay type: binding, human
# Protocol: Phages displaying IgVH mutational status-specific polypeptides were isolated. 10^11 plaque forming units (pfu) of PDPL Ph.D.-7 (New England Biolabs, Ipswich, Mass.) were added to 10^6 unmutated CLL B cells suspended in 1 mL of phosphate buffered saline (PBS) containing 0.5% bovine serum albumin (BSA), and the mixture was incubated at room temperature for 1 hour with gentle rocking (FIG. 1A). The cells with attached phages were spun down and washed three times with PBS containing 0.5% BSA (FIG. 1B). The attached phages were then eluted for 20 minutes by adding 1 mL of elution buffer (1% BSA, 0.2 M Glycine-HCl, pH 2.2; FIG. 1C). The elution buffer was neutralized with 0.15 mL of 1 M Tris-HCl (pH 9.1). The eluted phages were precipitated by adding 0.2 mL of a solution containing 20% (w/v) polyethylene glycol 8,000 (Sigma, Saint Louis, Mo.) and 2.5 M NaCl. The eluted phages were then added to a suspension of 10^6 mutated CLL B cells in PBS with 0.5% BSA and incubated with gentle rocking for 40 minutes. The cells with bound phages (FIG. 1D) were spun down, leaving the supernatant containing unbound phages. This latter step was repeated four times to ensure complete subtraction of phages binding to mutated CLL B cells. The unbound phages in the supernatant were titered, amplified and purified as described elsewhere (Nowakowski et al., Stem Cells, 22(6):1030-8 (2004); FIG. 1E). […]
# vimentin [2] = target: T2, vimentin (human (CLL patients), UniProt P08670 2-466); assay: immunoprecipitation from CLL B cell lysate with phage and anti-M13 antibodies; Western blot with phage
# T2 construct: Endogenous protein from total protein extracts of CLL patient cells; It ran on SDS-PAGE under reducing conditions for the Western blot; also called 56 kDa band; immunoprecipitated polypeptide
# Protocol: as §1, with “Na₄P₂O₄,” for “Na4P2O4,”, “Na₂VO₄),” for “Na2VO4),”, “10¹¹” for “10^11”
# T1 sequence (P08670 whole entry): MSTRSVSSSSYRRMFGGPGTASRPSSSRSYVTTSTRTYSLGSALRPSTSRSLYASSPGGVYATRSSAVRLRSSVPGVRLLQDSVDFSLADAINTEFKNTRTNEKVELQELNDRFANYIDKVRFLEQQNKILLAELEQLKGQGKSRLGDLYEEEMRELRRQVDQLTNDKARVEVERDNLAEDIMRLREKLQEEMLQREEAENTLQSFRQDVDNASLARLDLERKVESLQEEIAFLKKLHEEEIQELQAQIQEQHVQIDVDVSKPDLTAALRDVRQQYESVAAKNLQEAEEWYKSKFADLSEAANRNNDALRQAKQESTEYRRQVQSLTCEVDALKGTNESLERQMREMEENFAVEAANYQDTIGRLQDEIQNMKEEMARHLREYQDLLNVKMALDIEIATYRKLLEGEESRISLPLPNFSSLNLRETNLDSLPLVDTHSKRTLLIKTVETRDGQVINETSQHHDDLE
# T2 sequence (P08670 2-466 limits assumed): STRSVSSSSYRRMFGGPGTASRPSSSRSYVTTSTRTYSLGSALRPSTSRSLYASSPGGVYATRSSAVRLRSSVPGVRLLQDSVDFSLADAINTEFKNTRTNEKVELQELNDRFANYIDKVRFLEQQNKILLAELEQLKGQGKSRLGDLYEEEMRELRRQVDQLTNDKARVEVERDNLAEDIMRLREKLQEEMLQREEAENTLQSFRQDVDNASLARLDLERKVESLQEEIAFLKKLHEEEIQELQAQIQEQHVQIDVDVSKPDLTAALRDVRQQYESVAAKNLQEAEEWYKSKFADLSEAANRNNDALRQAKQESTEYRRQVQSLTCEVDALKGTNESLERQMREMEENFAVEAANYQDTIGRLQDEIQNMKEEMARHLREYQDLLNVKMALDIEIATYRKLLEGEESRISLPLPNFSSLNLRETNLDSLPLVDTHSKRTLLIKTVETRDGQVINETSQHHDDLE
Molecule,Cellular localization of binding (pattern of staining) (CLL B cells),"Target of the polypeptide identified (vimentin [1]; in-gel trypsin digestion, nano LC-MS/MS, Mascot and Sequest)","Band immunoprecipitated from CLL polypeptides (vimentin [1]; phage bearing the polypeptide and anti-phage antibodies, binding confirmed by Western blotting)",Percentage of sequenced single phage colonies encoding the polypeptide (unmutated CLL B cells; fourth round of biopanning),Percentage of sequenced single phage colonies encoding the polypeptide (unmutated CLL B cells; third round of subtraction biopanning),binding result (vimentin [2])
FPSAHFL (fluorescein-FPSAHFL) [also synthesized and fluorescein labelled at the N terminus],localized within the cytoplasm; also recorded: cytoplasmic pattern of staining,vimentin,56 kDa,34%,20%,–
B1,–,–,–,–,–,binds
